Test results from PMC5601180, “Uptake and metabolism of sulphated steroids by the blood–brain barrier in the adult male rat” (Journal of Neurochemistry, 2017).

Tested on: efflux transporters
Test: Brain perfusion in situ with efflux transporter inhibitors co-perfused with 3H-steroid sulphate
Type: in vivo, rat
Details: GF120918 3 μM or MK571 50 μM co-perfused, alone or in combination; 0.5 min perfusion
Protocol: Figure 3 Effect of the efflux inhibitors GF120918 (3 μM) and MK571 (50 μM), alone or in combination, on the brain uptake of either ^3H‐dehydroepiandrosterone sulphate (DHEAS) or ^3H‐pregnenolone sulphate (PregS) after 0.5 min perfusion. […] All values mean ± SEM, n = 3. The effect of 0.5 mM of the corresponding unlabelled steroid sulphate (SS) in addition to the inhibitors is also shown. […] The inhibitors GF120918 and MK571 were dissolved in dimethylsulphoxide to a maximum final concentration of 0.8% (v/v) in the perfusate.

SMILES	effect on brain uptake of 3H-DHEAS	effect on brain uptake of 3H-PregS
CN(C)C(=O)CCSC(SCCC(=O)O)c1cccc(/C=C/c2ccc3ccc(Cl)cc3n2)c1 (stereo not shown) [MK571, 3‐[[[3‐[(1E)‐2‐(7‐Chloro‐2‐quinolinyl)ethenyl]phenyl][[3‐(dimethylamino)‐3‐oxopropyl]thio]methyl]thio]propanoic acid]	significant decrease in uptake	significant decrease in uptake
COc1cc2c(cc1OC)CN(CCc1ccc(NC(=O)c3cccc4c(=O)c5cccc(OC)c5[nH]c34)cc1)CC2.Cl [GF120918, 9,10‐dihydro‐5‐methoxy‐9‐oxo‐N‐[4‐[2‐(1,2,3,4‐tetrahydro‐6,7‐dimethoxy‐2‐isoquinolinyl)ethyl]phenyl]‐4‐acridine‐carboxamide hydrochloride]	significant decrease in uptake	significant decrease in uptake
